Measurements: PubChem BioAssay (NCI)
Where “and” joins values, the source holds several entries; their conditions need not be identical. Equal values may be shown once.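 How tested: cells in 96-well plates exposed to compound for 48 hours at five concentrations. Abbreviation: GI50, concentration required for 50% inhibition of growth. TGI is the concentration that stops growth completely.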

How the values were obtained:
Assay in all cases: DTP human tumour cell line panel, 48 h
COLO 205 colon = system: COLO 205 colon
HCC-2998 colon = system: HCC-2998 colon
HL-60(TB) leukemia = system: HL-60(TB) leukemia
LOX IMVI melanoma = system: LOX IMVI melanoma
MCF7 breast = system: MCF7 breast
PC-3 prostate = system: PC-3 prostate
SF-295 CNS = system: SF-295 CNS
SF-539 CNS = system: SF-539 CNS
SK-OV-3 ovarian = system: SK-OV-3 ovarian
MOLT-4 leukemia = system: MOLT-4 leukemia

| Structure (SMILES) | TGI (COLO 205 colon) | TGI (HCC-2998 colon) | GI50 (HL-60(TB) leukemia) | TGI (HL-60(TB) leukemia) | TGI (LOX IMVI melanoma) | GI50 (MCF7 breast) | TGI (MCF7 breast) | GI50 (PC-3 prostate) | TGI (PC-3 prostate) | TGI (SF-295 CNS) | TGI (SF-539 CNS) | TGI (SK-OV-3 ovarian) | GI50 (COLO 205 colon) | GI50 (HCC-2998 colon) | GI50 (LOX IMVI melanoma) | GI50 (MOLT-4 leukemia) | TGI (MOLT-4 leukemia) | GI50 (SF-295 CNS) | GI50 (SF-539 CNS) | GI50 (SK-OV-3 ovarian) |
| --- | --- | --- | --- | --- | --- | --- | --- | --- | --- | --- | --- | --- | --- | --- | --- | --- | --- | --- | --- | --- |
| CN(NC(=O)CC(=O)NN(C)C(=S)c1ccccc1)C(=S)c1ccccc1 | > 100 µM | > 100 µM | > 70.7 µM | > 100 µM | > 100 µM | < 0.01 µM | > 100 µM | 51.5 µM | > 100 µM | > 100 µM | > 100 µM | > 100 µM | – | – | – | – | – | – | – | – |
| Cc1cc(C)c(O)c(CNCCCCCCNCc2cc(C)cc(C)c2O)c1 | 3.32 µM | 2.39 µM | 1.84 µM | 3.77 µM | 2.88 µM | 1.54 µM | 3.22 µM | 1.99 µM | 4.28 µM | 3.46 µM | 3.17 µM | 3.67 µM | 1.67 µM | 1.02 µM | 1.48 µM | 1.72 µM | 3.9 µM | 1.78 µM | 1.62 µM | 1.83 µM |
| CC1(C)NCCC[C@]2(C)[C@H]3C=CC4=C5C[C@](C)(CO)CC[C@]5(C)CC[C@@]4(C)[C@]3(C)CC[C@@H]12 | 13.9 µM | 23 µM | 2.63 µM | 7.02 µM | 6.76 µM | 3.14 µM | 14.5 µM | 3.05 µM | 12.3 µM | 4.04 µM | 9.26 µM | 28.6 µM | 3.63 µM | 10.1 µM | 2.49 µM | 2.46 µM | 6.8 µM | 2 µM | 2.69 µM | 14.5 µM |
| C=C1C[C@@H]2C/C=C/C(=O)C/C(C)=C\C=C\C(=O)O[C@H](C=O)C/C(C)=C/[C@H](C1)O2 | 17.7 µM | 3.32 µM | 0.243 µM | 0.781 µM | 13.5 µM | 0.277 µM | 13.6 µM | 0.354 µM | 21.4 µM | 43.2 µM | 1.64 µM | > 100 µM | 0.885 µM | 0.77 µM | 0.711 µM | 2.72 µM | 13.7 µM | 3.26 µM | 0.328 µM | 5.36 µM |
| c1ccc(C(=NNc2nc3ccccc3o2)c2ccccn2)nc1 | 14.4 µM | 18.4 µM and 1.96 µM | 0.0323 µM | 0.289 µM and 1.14 µM | 2.45 µM and 0.702 µM | 0.0289 µM | – | 0.0436 µM | 26.6 µM and 13.8 µM | 12.6 µM and 3.7 µM | – | – | 0.0194 µM | 0.0972 µM | 0.0539 µM | 0.0316 µM | > 56.5 µM | – | 0.112 µM | 0.0518 µM |
| O=C1C(Cl)=C(Oc2ccc([N+](=O)[O-])cc2)C(=O)c2c(O)ccc(O)c21 | 42.3 µM | > 100 µM | – | 19.2 µM | – | – | > 100 µM | – | > 100 µM | > 100 µM | > 100 µM | > 100 µM | – | – | – | – | 25.2 µM | – | – | – |
| O=C1CCCCCCCC/C=C/CCC(c2ccco2)O1 (centres undefined) | > 100 µM | > 100 µM | 14.5 µM | 38.7 µM | 87.3 µM | 15.8 µM | > 100 µM | 77.8 µM | > 100 µM | > 100 µM | > 100 µM | > 100 µM | 68 µM | > 100 µM | 35.3 µM | 24.1 µM | 89.6 µM | 18.6 µM | 60.5 µM | > 100 µM |
| Cc1ccccc1CN1CC2=C(CCN(Cc3ccccc3)C2=O)N2CCN=C12 | > 100 µM | > 70.6 µM | – | > 100 µM | > 100 µM | – | > 100 µM | – | > 100 µM | > 60.4 µM | > 14.1 µM | > 52.6 µM | – | – | – | – | > 100 µM | – | – | – |
| OCC(O)C(O)C(O)C1SC(c2ccccc2)=NN1c1ccccc1 (centres undefined) | > 100 µM | > 100 µM | – | > 100 µM | > 100 µM | – | > 100 µM | – | > 100 µM | > 100 µM | 98.7 µM | 76.9 µM | – | – | – | – | > 100 µM | – | – | – |
| O=C(NC1CC1)c1ccc(-c2nc3ccc4[nH]ncc4c3c3c2CCCC3)cc1 | 10.4 µM | 10.1 µM | 1.59 µM | 6.99 µM | 11.7 µM | 1.44 µM | 9.57 µM | 2.29 µM | 29.7 µM | 13.6 µM | 6.68 µM | – | 1.8 µM | 3.27 µM | 1.95 µM | 1.75 µM | 20.1 µM | 2.24 µM | 1.32 µM | – |
| COc1ccc(C2=NN(C(=O)COc3ccc(Cl)cc3)C(O)(c3cc(F)c(Cl)cc3Cl)C2)cc1OC (centres undefined) | 3.41 µM | 13.3 µM | 2.68 µM | 7.86 µM | 2.78 µM | 2.18 µM | 8.21 µM | 5.49 µM | 13.2 µM | 11.8 µM | 3.55 µM | 30.6 µM | 1.63 µM | 3.91 µM | 1.4 µM | 1.47 µM | > 20.6 µM | – | 1.81 µM | 16.1 µM |
